Source: PubChem BioAssay (NCI)
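These data come from cells grown in 96-well plates and exposed to compound for 48 hours at five concentrations. At the GI50, growth is halved. TGI denotes the concentration required for complete inhibition of growth.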

Legend:
Assay in all cases: inhibition of tumour cell growth, NCI panel, 48 h
[1] = system: SN12C renal
[2] = system: NCI-H522 lung
[3] = system: SK-MEL-28 melanoma
[4] = system: LOX IMVI melanoma
[5] = system: MOLT-4 leukemia
[6] = system: CCRF-CEM leukemia
[7] = system: HS 578T breast
[8] = system: SR leukemia
[9] = system: NCI-H23 lung
[10] = system: RXF 393 renal

O=C1C(=O)C(Br)(Br)C(Br)=C1Br
TGI [1]: 51.8 µM | TGI [2]: 6.68 µM | TGI [3]: 29.7 µM | TGI [4]: 31.9 µM | TGI [5]: 63 µM | TGI [6]: 57.1 µM

CC(=O)N=c1ccc2nc3c(cc(N)c4ccccc43)oc-2c1
GI50 [1]: 1.39 µM | TGI [1]: 2.9 µM | GI50 [2]: 1.44 µM | TGI [2]: 3.47 µM | GI50 [3]: 1.75 µM | TGI [3]: 3.26 µM | TGI [7]: > 23.8 µM | GI50 [8]: 1.67 µM | TGI [8]: > 21.2 µM | GI50 [5]: 0.353 µM | TGI [5]: 5.26 µM | GI50 [6]: 0.7 µM | TGI [6]: 5.65 µM | GI50 [9]: 1.27 µM | TGI [9]: 4.25 µM

CCN(CC)C(=O)COc1ccc(Br)cc1Br
TGI [1]: > 100 µM | TGI [10]: > 100 µM | TGI [2]: > 100 µM | TGI [3]: > 100 µM | TGI [4]: > 100 µM | TGI [8]: > 100 µM | TGI [5]: > 100 µM | TGI [6]: > 100 µM | TGI [9]: > 100 µM

O=C(COc1ccccc1)NS(=O)(=O)c1ccccc1
TGI [1]: > 100 µM | TGI [10]: > 100 µM | TGI [2]: > 100 µM | TGI [3]: > 100 µM | TGI [4]: > 100 µM | TGI [8]: > 100 µM | TGI [5]: > 100 µM | TGI [6]: > 100 µM | TGI [9]: > 100 µM

CCOC(=O)c1sc(Nc2ccc(Cl)cc2)nc1C
GI50 [1]: 1.75 µM | TGI [1]: 4.81 µM | GI50 [10]: 2.11 µM | TGI [10]: 4.75 µM | GI50 [2]: 1.18 µM | TGI [2]: 3.57 µM | GI50 [3]: 1.96 µM | TGI [3]: 4.23 µM | GI50 [4]: 1.49 µM | TGI [4]: 2.86 µM | GI50 [7]: 2.22 µM | TGI [7]: 6.2 µM | GI50 [5]: 1.79 µM | TGI [5]: 6.92 µM | GI50 [6]: 2.64 µM | TGI [6]: 9.37 µM | GI50 [9]: 1.5 µM | TGI [9]: 3.56 µM

O=c1cnn2c(n1)sc1ccc3ccccc3c12
TGI [1]: > 100 µM | TGI [10]: > 100 µM | TGI [3]: > 100 µM | TGI [4]: > 100 µM | TGI [8]: > 100 µM | TGI [5]: > 100 µM | TGI [6]: > 100 µM | TGI [9]: > 100 µM

Cc1ccccc1C(C#N)C(=O)C(=O)Nc1cccc(Cl)c1 (stereo unspecified)
TGI [1]: > 100 µM | TGI [10]: > 100 µM | TGI [2]: > 100 µM | TGI [3]: > 100 µM | TGI [4]: 34.1 µM | TGI [5]: > 100 µM | TGI [6]: > 100 µM | TGI [9]: > 100 µM

Nc1c(-c2ccc(Cl)cc2Cl)[n+]([O-])c2ccccc2[n+]1[O-]
TGI [1]: > 100 µM | TGI [2]: > 100 µM | TGI [3]: > 100 µM | TGI [4]: > 100 µM | TGI [5]: > 100 µM | TGI [6]: > 100 µM | TGI [9]: > 100 µM

O=C(Nc1nc2ncn(CC(COc3ccccc3)OC(=O)c3ccccc3)c2c(=O)[nH]1)c1ccccc1 (stereo unspecified)
TGI [1]: > 100 µM | TGI [10]: > 100 µM | TGI [2]: > 100 µM | TGI [3]: > 100 µM | TGI [4]: > 100 µM | TGI [8]: > 100 µM | TGI [5]: > 100 µM

CC1OC(OCC2COC(O)(Oc3c(-c4ccc(O)c(O)c4)oc4cc(O)cc(O)c4c3=O)C(O)C2O)C(O)C(O)C1O (stereo unspecified)
TGI [1]: > 100 µM | TGI [10]: > 100 µM | TGI [3]: > 100 µM | TGI [4]: > 100 µM | TGI [8]: > 100 µM | TGI [5]: > 100 µM | TGI [6]: > 100 µM | TGI [9]: > 100 µM

CC1=C(C(=O)Nc2ccc(Cl)c(Cl)c2)C(c2ccco2)C(C(=O)Nc2ccc(Cl)c(Cl)c2)=C(C)N1
TGI [1]: 23.9 µM | TGI [2]: 26.7 µM | TGI [3]: 25.3 µM | TGI [8]: 32 µM | TGI [5]: 48 µM | TGI [6]: 27.7 µM | TGI [9]: 35.2 µM

CCOC(=O)c1cn(Cc2ccccc2)c(=O)n1Cc1ccccc1
TGI [1]: > 100 µM | TGI [10]: > 100 µM | TGI [2]: > 100 µM | TGI [3]: > 100 µM | TGI [4]: > 100 µM | TGI [5]: > 100 µM | TGI [6]: > 100 µM | TGI [9]: > 100 µM

O=[N+]([O-])c1nccn1COCCF
TGI [1]: > 100 µM | TGI [2]: > 100 µM | TGI [3]: > 100 µM | TGI [4]: > 100 µM | TGI [8]: > 100 µM | TGI [5]: > 100 µM | TGI [6]: > 100 µM | TGI [9]: > 100 µM

COc1ccc(/C=C2\CCC(C)(CN(C)C)C2=O)cc1 (stereo unspecified)
TGI [1]: > 100 µM | TGI [10]: > 100 µM | TGI [2]: 32.8 µM | TGI [3]: > 100 µM | TGI [4]: > 100 µM | TGI [5]: > 100 µM | TGI [9]: > 100 µM

Cc1ccc(C)c(NC(=O)CC/C(=N\NC(=O)C(N)=O)C(C)C(=O)c2ccc(O)cc2)c1 (stereo unspecified)
TGI [1]: > 100 µM | TGI [10]: > 100 µM | TGI [3]: > 100 µM | TGI [4]: > 100 µM | TGI [8]: > 100 µM | TGI [5]: > 100 µM | TGI [6]: > 100 µM | TGI [9]: > 100 µM

CC(C)(C)C(=O)C1CC(=O)c2ccccc2C1=O (stereo unspecified)
TGI [1]: > 100 µM | TGI [10]: 80.6 µM | TGI [2]: 65.8 µM | TGI [3]: 72.8 µM | TGI [4]: > 100 µM | TGI [5]: 75.9 µM | TGI [6]: > 100 µM | TGI [9]: 45.3 µM

NC(=S)N/N=C1/C(=O)N(c2ccc(Cl)cc2Cl)C(=O)C(=O)C1c1nc2ccccc2s1 (stereo unspecified)
TGI [1]: > 100 µM | TGI [10]: > 100 µM | TGI [2]: > 100 µM | TGI [3]: > 100 µM | TGI [4]: > 100 µM | TGI [5]: > 100 µM | TGI [9]: > 100 µM

O=C1CCC2(CC1)SCCCS2
TGI [1]: > 100 µM | TGI [10]: > 100 µM | TGI [2]: > 100 µM | TGI [3]: > 100 µM | TGI [4]: > 100 µM | TGI [6]: > 100 µM | TGI [9]: > 100 µM

Cc1cc(O)cc2c1O[C@@]1(C)CCC3[C@@]4(C)CC[C@H](O)C(C)(C)C4CC[C@@]3(C)[C@H]1C2 (stereo partly specified)
TGI [1]: 25.4 µM | TGI [10]: 13.3 µM | TGI [2]: 21.9 µM | TGI [3]: 20.3 µM | TGI [4]: 20.6 µM | TGI [5]: 4 µM | TGI [6]: 7.08 µM | TGI [9]: 29.2 µM

Cc1cc(Cl)cc2c1NC(=O)C2(O)C(C)C(=O)c1ccc(Cl)cc1 (stereo unspecified)
TGI [1]: > 100 µM | TGI [10]: 89.8 µM | TGI [2]: > 100 µM | TGI [3]: > 100 µM | TGI [4]: > 100 µM | TGI [8]: > 91.2 µM | TGI [5]: 87.7 µM | TGI [6]: > 89.4 µM | TGI [9]: > 100 µM

CCOC(=O)/C(=C/c1ccc(C#N)cc1)N(CC)CC
TGI [1]: > 100 µM | TGI [2]: > 100 µM | TGI [3]: > 100 µM | TGI [4]: > 100 µM | TGI [8]: > 100 µM | TGI [5]: > 100 µM | TGI [6]: > 100 µM | TGI [9]: > 100 µM

O=c1c2ccccc2c2nc3ccccc3nc2n1C1CCCCC1
TGI [1]: > 100 µM | TGI [10]: > 100 µM | TGI [2]: > 100 µM | TGI [3]: > 100 µM | TGI [8]: > 100 µM | TGI [5]: > 100 µM | TGI [9]: > 100 µM

COc1ccc(C(c2c(O)c3ccccc3n(C)c2=O)c2c(O)c3ccccc3n(C)c2=O)cc1
TGI [1]: > 100 µM | TGI [10]: > 100 µM | TGI [2]: 60 µM | TGI [3]: > 100 µM | TGI [4]: > 100 µM | TGI [8]: > 100 µM | TGI [5]: > 100 µM | TGI [9]: 66.7 µM

COc1ccc2nc3ccccc3c(NCCCCCCN(C)CCCl)c2c1
TGI [1]: 1.75 µM | TGI [10]: 1.23 µM | TGI [2]: 1.58 µM | TGI [3]: 2.26 µM | TGI [4]: 0.515 µM | TGI [5]: 0.165 µM | TGI [6]: 0.348 µM | TGI [9]: 1.04 µM

CN(C)CC1(C)CC/C(=C\c2ccccc2)C1=O (stereo unspecified)
TGI [1]: > 100 µM | TGI [10]: > 100 µM | TGI [2]: > 100 µM | TGI [3]: > 100 µM | TGI [4]: > 100 µM | TGI [5]: > 100 µM | TGI [6]: > 100 µM | TGI [9]: > 100 µM
